Source: ChEMBL document CHEMBL4000192, “Identification and optimization of a novel series of indoleamine 2,3-dioxygenase inhibitors” (Bioorg Med Chem Lett, 2017)
pIC50: −log10 of the molar value. One block for each compound: values may come before it.

Assays:
[1] = tested on: HeLa; assay: Cytotoxic activity against human HeLa cells by […]; assay type: cell-based
[2] = biological target: T1, Indoleamine 2,3-dioxygenase 1 (Homo sapiens, UniProt P14902); assay: Inhibition of IDO1 in IFN-gamma stimulated human HeLa cells assessed as inhibition of kynurenine production preincubated with cells followed by IFN-gamma addition measured after 20 hrs; assay type: cell-based
Target sequence in this assay (P14902 whole entry): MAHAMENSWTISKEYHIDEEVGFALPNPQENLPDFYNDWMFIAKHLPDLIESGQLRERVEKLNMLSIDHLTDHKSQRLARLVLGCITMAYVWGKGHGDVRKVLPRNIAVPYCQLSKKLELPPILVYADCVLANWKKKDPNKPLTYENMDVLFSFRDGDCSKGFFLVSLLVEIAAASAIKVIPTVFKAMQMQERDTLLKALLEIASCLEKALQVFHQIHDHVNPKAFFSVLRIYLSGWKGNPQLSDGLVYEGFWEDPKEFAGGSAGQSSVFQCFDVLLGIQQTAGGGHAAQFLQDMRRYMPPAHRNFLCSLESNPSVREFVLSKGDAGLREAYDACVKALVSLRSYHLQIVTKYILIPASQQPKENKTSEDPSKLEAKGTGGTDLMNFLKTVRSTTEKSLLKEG

[3] = biological target: T2, Cytochrome P450 3A4 (Homo sapiens, UniProt P08684); assay: Inhibition of CYP3A4 (unknown origin) using BFC as substrate; assay type: ADME
T2 sequence (P08684 whole entry): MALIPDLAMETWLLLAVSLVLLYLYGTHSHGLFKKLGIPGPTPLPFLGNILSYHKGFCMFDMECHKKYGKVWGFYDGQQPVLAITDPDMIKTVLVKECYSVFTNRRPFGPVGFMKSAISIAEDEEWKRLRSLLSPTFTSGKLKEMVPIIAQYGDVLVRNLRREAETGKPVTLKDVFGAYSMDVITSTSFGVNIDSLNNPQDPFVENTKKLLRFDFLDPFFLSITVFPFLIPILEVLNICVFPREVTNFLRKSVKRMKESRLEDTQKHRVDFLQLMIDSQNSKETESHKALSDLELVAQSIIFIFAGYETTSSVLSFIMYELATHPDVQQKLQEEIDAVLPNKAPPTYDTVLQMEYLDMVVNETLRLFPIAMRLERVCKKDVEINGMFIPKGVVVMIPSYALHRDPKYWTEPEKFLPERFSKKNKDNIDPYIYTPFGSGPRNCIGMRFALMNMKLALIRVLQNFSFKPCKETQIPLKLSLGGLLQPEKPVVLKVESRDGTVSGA

[4] = Metabolic stability in mouse liver microsomes assessed as parent compound remaining at 0.5 uM after 10 mins; assay type: ADME, microsome; details: read-out: Stability
[5] = Metabolic stability in rat liver microsomes assessed as parent compound remaining at 0.5 uM after 10 mins; assay type: ADME, microsome; details: read-out: Stability
[6] = biological target: T2, Cytochrome P450 3A4; assay: Inhibition of CYP3A4 (unknown origin) using BZR as substrate; assay type: ADME
[7] = Metabolic stability in human liver microsomes assessed as parent compound remaining at 0.5 uM after 10 mins; assay type: ADME, microsome; details: read-out: Stability
[8] = biological target: Cytochrome P450 2C19 (Homo sapiens, UniProt P33261); assay: Inhibition of CYP2C19 (unknown origin); assay type: ADME
Sequence of Cytochrome P450 2C19 (P33261 whole entry): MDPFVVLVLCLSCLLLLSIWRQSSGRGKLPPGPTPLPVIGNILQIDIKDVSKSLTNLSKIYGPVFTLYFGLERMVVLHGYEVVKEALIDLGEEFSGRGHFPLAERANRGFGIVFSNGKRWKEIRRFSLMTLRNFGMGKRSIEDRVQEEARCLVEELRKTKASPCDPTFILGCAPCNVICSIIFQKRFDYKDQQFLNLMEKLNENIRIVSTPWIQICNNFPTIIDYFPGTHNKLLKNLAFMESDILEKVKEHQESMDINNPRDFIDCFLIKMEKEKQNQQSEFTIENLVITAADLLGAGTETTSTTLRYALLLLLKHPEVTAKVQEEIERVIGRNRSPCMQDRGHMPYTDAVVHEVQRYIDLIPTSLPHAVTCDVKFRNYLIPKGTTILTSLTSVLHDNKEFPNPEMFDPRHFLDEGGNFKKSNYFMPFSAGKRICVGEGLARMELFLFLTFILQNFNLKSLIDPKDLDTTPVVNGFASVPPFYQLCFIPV

[9] = biological target: Cytochrome P450 2D6 (Homo sapiens, UniProt P10635); assay: Inhibition of CYP2D6 (unknown origin); assay type: ADME
Sequence of Cytochrome P450 2D6 (P10635 whole entry): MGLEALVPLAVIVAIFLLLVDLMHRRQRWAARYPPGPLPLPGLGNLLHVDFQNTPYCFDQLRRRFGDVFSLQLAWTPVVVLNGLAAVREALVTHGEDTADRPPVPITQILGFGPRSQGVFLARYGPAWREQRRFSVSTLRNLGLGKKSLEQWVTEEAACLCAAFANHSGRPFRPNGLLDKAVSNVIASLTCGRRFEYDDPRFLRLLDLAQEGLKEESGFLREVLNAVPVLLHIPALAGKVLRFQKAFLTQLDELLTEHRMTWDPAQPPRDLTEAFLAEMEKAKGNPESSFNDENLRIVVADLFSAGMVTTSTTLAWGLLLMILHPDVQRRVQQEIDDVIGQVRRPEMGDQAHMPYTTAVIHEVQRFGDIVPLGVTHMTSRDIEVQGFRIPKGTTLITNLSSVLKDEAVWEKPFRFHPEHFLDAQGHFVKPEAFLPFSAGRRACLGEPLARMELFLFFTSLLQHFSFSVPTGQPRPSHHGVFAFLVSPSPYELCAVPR

[10] = biological target: T3, Cytochrome P450 2B6 (Homo sapiens, UniProt P20813); assay: Inhibition of CYP2B6 (unknown origin); assay type: ADME
T3 sequence (P20813 whole entry): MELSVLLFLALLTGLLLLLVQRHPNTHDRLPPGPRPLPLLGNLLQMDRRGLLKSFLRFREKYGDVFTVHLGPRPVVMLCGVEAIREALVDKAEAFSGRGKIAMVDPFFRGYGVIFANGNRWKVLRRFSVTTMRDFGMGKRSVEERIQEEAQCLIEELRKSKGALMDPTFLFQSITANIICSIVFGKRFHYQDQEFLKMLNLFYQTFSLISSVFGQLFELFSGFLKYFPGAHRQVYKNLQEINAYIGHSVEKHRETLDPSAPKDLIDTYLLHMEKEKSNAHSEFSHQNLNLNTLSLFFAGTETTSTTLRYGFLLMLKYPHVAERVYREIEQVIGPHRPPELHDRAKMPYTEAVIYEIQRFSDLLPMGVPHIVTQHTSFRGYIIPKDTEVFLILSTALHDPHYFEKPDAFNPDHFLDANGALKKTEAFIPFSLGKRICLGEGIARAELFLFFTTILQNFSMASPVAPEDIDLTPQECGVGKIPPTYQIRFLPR

[11] = biological target: Cytochrome P450 2C9 (Homo sapiens, UniProt P11712); assay: Inhibition of CYP2C9 (unknown origin); assay type: ADME
Sequence of Cytochrome P450 2C9 (P11712 whole entry): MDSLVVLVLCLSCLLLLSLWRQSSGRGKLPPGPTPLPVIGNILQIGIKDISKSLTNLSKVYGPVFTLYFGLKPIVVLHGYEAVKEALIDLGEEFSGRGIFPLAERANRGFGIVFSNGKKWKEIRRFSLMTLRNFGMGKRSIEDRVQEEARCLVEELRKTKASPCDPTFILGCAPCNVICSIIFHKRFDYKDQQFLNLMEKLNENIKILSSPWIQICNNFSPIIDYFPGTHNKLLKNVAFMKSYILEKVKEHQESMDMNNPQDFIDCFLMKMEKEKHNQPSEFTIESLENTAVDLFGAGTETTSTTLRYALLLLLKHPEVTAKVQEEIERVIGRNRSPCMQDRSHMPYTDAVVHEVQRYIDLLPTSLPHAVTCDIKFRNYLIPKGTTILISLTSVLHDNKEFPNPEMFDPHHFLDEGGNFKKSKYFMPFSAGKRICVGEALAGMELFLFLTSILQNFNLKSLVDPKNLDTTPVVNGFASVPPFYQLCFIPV

[12] = biological target: T4, Cytochrome P450 2C8 (Homo sapiens, UniProt P10632); assay: Inhibition of CYP2C8 (unknown origin); assay type: ADME
T4 sequence (P10632 whole entry): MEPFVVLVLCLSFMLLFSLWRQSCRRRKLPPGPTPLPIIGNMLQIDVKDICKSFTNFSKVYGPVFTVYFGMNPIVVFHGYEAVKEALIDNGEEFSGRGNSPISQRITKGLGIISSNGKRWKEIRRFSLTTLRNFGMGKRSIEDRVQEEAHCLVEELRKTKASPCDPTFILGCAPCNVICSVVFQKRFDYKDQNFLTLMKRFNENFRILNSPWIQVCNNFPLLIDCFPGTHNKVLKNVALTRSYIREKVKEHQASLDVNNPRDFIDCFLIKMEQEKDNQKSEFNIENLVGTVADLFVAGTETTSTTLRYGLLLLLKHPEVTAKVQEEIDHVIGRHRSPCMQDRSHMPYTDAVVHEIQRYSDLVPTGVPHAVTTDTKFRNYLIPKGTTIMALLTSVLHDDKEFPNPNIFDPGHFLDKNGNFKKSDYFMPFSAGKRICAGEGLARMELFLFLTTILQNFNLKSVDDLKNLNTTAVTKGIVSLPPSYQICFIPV

[13] = biological target: T5, Cytochrome P450 1A2 (Homo sapiens, UniProt P05177); assay: Inhibition of CYP1A2 (unknown origin); assay type: ADME
T5 sequence (P05177 whole entry): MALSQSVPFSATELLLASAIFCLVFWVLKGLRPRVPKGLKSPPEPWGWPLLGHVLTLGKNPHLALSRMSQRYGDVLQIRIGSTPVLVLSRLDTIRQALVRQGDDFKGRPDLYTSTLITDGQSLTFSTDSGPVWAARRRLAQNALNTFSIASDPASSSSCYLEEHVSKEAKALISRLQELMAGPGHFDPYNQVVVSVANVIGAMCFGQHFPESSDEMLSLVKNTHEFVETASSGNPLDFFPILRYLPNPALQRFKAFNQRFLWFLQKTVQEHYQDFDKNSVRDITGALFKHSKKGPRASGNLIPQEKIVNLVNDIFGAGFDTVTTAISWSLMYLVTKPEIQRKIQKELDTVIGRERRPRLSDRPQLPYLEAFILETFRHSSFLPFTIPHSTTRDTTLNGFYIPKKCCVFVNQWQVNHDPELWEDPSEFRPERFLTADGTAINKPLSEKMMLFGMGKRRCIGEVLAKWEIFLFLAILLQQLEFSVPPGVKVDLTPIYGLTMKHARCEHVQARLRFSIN

[14] = biological target: T1, Indoleamine 2,3-dioxygenase 1; assay: Inhibition of IDO1 (unknown origin) at 25 uM using tryptophan as substrate preincubated for 15 mins followed by substrate addition by high-throughput screening assay relative to control
Target sequence in this assay (P14902 whole entry, looked up): as the sequence (P14902 whole entry) above

[15] = biological target: T1, Indoleamine 2,3-dioxygenase 1; assay: Inhibition of IDO1 (unknown origin) using tryptophan as substrate preincubated for 15 mins followed by substrate addition by high-throughput screening assay
Target sequence in this assay (P14902 whole entry): as above

pIC50 [2]: 5.59
SMILES: CC(C)(C)c1ccccc1Oc1ccc(-c2cccc(C(=O)O)c2)cc1NC(=O)Nc1ccc(OC(F)F)cc1
pIC50 [1]: < 4.52

SMILES: CC(C)(C)c1ccccc1Oc1ccc(-c2cccc(C(=O)O)c2)cc1NC(=O)Nc1ccc(Br)cc1
pIC50 [1]: < 4.52

SMILES: C#CCOc1cccc(Oc2ccc(-c3ccc(OC)c(C(=O)O)c3)cc2NC(=O)Nc2ccc(C)cc2)c1C
pIC50 [1]: < 4.52

SMILES: COc1ccccc1Oc1ccc(-c2ccc(OC)c(C(=O)O)c2)cc1NC(=O)Nc1ccc(C)cc1
pIC50 [1]: < 4.52

pIC50 [2]: 5.35
SMILES: Cc1ccc(NC(=O)Nc2cc(-c3cccc(C(=O)O)c3F)ccc2Oc2ccccc2C(C)(C)C)cc1
pIC50 [1]: < 4.52

SMILES: COc1ccc(-c2ccc(Oc3cccc(C(C)(C)C)c3)c(NC(=O)Nc3ccc(C)cc3)c2)cc1C(=O)O
pIC50 [1]: < 4.52

SMILES: CC(C)(C)c1ccccc1Oc1ccc(-c2cccc(C(=O)O)c2)cc1NC(=O)Nc1ccc(Cl)cc1
pIC50 [1]: < 4.52

pIC50 [2]: 6.00
SMILES: Cc1ccccc1NC(=O)Nc1cc(-c2cccc(C(=O)O)c2)ccc1Oc1ccccc1C(C)(C)C
pIC50 [1]: < 4.52

SMILES: COc1ccc(-c2ccc(Oc3ccccc3C)c(NC(=O)Nc3ccc(C)cc3)c2)cc1C(=O)O
pIC50 [1]: < 4.52

pIC50 [3]: < 5.52
remaining at 10 min, 0.5 µM [4]: 74%
remaining at 10 min, 0.5 µM [5]: 83%
pIC50 [6]: < 5.52
remaining at 10 min, 0.5 µM [7]: 74%
pIC50 [8]: < 5.52
pIC50 [9]: < 5.52
pIC50 [2]: 7.66
pIC50 [10]: < 5.52
pIC50 [11]: < 5.52
pIC50 [12]: < 5.52
pIC50 [13]: < 5.52
SMILES: COc1ccc(-c2ccc(Oc3cccc4c3CCCC4)c(NC(=O)Nc3ccccc3Cl)c2)cc1C(=O)O
pIC50 [1]: < 4.52

remaining at 10 min, 0.5 µM [4]: 96%
remaining at 10 min, 0.5 µM [5]: 92%
remaining at 10 min, 0.5 µM [7]: 80%
pIC50 [2]: 7.21
SMILES: COc1ccc(-c2ccc(Oc3cccc4c3CCCC4)c(NC(=O)Nc3ccccc3)c2)cc1C(=O)O
pIC50 [1]: < 5.00

remaining at 10 min, 0.5 µM [4]: 69%
remaining at 10 min, 0.5 µM [5]: 95%
remaining at 10 min, 0.5 µM [7]: 100%
pIC50 [2]: 7.00
SMILES: COc1ccc(-c2ccc(Oc3cccc4c3CCCC4)c(NC(=O)Nc3ccc(C)cc3)c2)cc1C(=O)O
pIC50 [1]: < 4.52

pIC50 [2]: 5.62
SMILES: COc1ccc(-c2ccc(Oc3ccccc3C(C)(C)CO)c(NC(=O)Nc3ccc(C)cc3)c2)cc1C(=O)O
pIC50 [1]: < 4.52

pIC50 [2]: 6.46
SMILES: COc1ccc(-c2ccc(Oc3ccccc3C(C)(C)C)c(NC(=O)Nc3ccc(C)cc3)c2)cc1C(=O)O
pIC50 [1]: < 4.52

SMILES: COc1ccc(-c2ccc(Oc3cccc4c3CCC4)c(NC(=O)Nc3ccc(C)cc3)c2)cc1C(=O)O
pIC50 [1]: < 4.52

pIC50 [2]: 5.82
SMILES: CC(C)(C)c1ccccc1Oc1ccc(-c2cccc(C(=O)O)c2)cc1NC(=O)Nc1ccccc1
pIC50 [1]: < 4.52

SMILES: CCOc1ccc(-c2ccc(Oc3ccccc3C(C)(C)C)c(NC(=O)Nc3ccc(C)cc3)c2)cc1C(=O)O
pIC50 [1]: < 4.52

pIC50 [2]: 6.47
SMILES: COc1ccc(-c2ccc(Oc3ccccc3C(C)C)c(NC(=O)Nc3ccc(C)cc3)c2)cc1C(=O)O
pIC50 [1]: < 4.52

pIC50 [2]: 6.60
SMILES: Cc1ccc(NC(=O)Nc2cc(-c3cc(Cl)cc(C(=O)O)c3)ccc2Oc2ccccc2C(C)(C)C)cc1
pIC50 [1]: < 4.52

SMILES: Cc1ccc(NC(=O)Nc2cc(-c3ccc(Cl)c(C(=O)O)c3)ccc2Oc2ccccc2C(C)(C)C)cc1
pIC50 [1]: < 4.52

pIC50 [2]: 5.22
SMILES: COc1ccc(-c2ccc(Oc3ccccc3C#N)c(NC(=O)Nc3ccc(C)cc3)c2)cc1C(=O)O
pIC50 [1]: < 4.52

pIC50 [3]: < 5.30
inhibition [14]: > 75%
pIC50 [6]: < 5.30
pIC50 [8]: < 5.30
pIC50 [15]: 7.06
pIC50 [9]: < 5.30
pIC50 [2]: 5.40
pIC50 [10]: < 5.30
pIC50 [11]: 5.60
pIC50 [12]: < 5.30
pIC50 [13]: < 5.30
SMILES: CC(C)(C)c1ccccc1Oc1ccc(-c2cccc(C(=O)O)c2)cc1NC(=O)Nc1ccc(OC(F)(F)F)cc1
pIC50 [1]: 4.66

SMILES: Cc1cccc(NC(=O)Nc2cc(-c3cccc(C(=O)O)c3)ccc2Oc2ccccc2C(C)(C)C)c1
pIC50 [1]: < 4.52

SMILES: COc1ccc(-c2ccc(Oc3cccc(C)c3C)c(NC(=O)Nc3ccc(C)cc3)c2)cc1C(=O)O
pIC50 [1]: < 4.52

SMILES: COc1ccc(NC(=O)Nc2cc(-c3cccc(C(=O)O)c3)ccc2Oc2ccccc2C(C)(C)C)cc1
pIC50 [1]: < 4.52

pIC50 [3]: < 5.52
remaining at 10 min, 0.5 µM [4]: 70%
remaining at 10 min, 0.5 µM [5]: 65%
pIC50 [6]: < 5.52
remaining at 10 min, 0.5 µM [7]: 41%
pIC50 [8]: < 5.52
pIC50 [9]: < 5.52
pIC50 [2]: 7.31
pIC50 [10]: < 5.52
pIC50 [11]: < 5.52
pIC50 [12]: < 5.52
pIC50 [13]: < 5.52
SMILES: COc1ccc(-c2ccc(Oc3cccc4c3CCCC4)c(NC(=O)Nc3ccccc3C)c2)cc1C(=O)O
pIC50 [1]: < 4.52

remaining at 10 min, 0.5 µM [4]: 77%
remaining at 10 min, 0.5 µM [5]: 72%
remaining at 10 min, 0.5 µM [7]: 95%
SMILES: COc1ccc(-c2ccc(Oc3cccc4c3CCCC4)c(NC(=O)Nc3ccccc3F)c2)cc1C(=O)O
pIC50 [1]: < 5.00

SMILES: CCc1ccccc1Oc1ccc(-c2ccc(OC)c(C(=O)O)c2)cc1NC(=O)Nc1ccc(C)cc1
pIC50 [1]: < 4.52

SMILES: COc1ccc(-c2ccc(Oc3ccccc3Cl)c(NC(=O)Nc3ccc(C)cc3)c2)cc1C(=O)O
pIC50 [1]: < 4.52

SMILES: CCCc1ccccc1Oc1ccc(-c2ccc(OC)c(C(=O)O)c2)cc1NC(=O)Nc1ccc(C)cc1
pIC50 [1]: < 4.52

SMILES: Cc1ccc(NC(=O)Nc2cc(-c3cccc(C(=O)O)c3)ccc2Oc2ccccc2C(C)(C)C)cc1
pIC50 [1]: < 4.52

pIC50 [3]: < 5.52
remaining at 10 min, 0.5 µM [4]: 86%
remaining at 10 min, 0.5 µM [5]: 71%
pIC50 [6]: < 5.52
remaining at 10 min, 0.5 µM [7]: 84%
pIC50 [8]: < 5.52
pIC50 [9]: < 5.52
pIC50 [10]: < 5.52
pIC50 [11]: < 5.52
pIC50 [12]: < 5.52
pIC50 [13]: < 5.52
SMILES: COc1ccc(-c2ccc(Oc3cccc4c3CCCC4)c(NC(=O)Nc3cccc(C)c3)c2)cc1C(=O)O
pIC50 [1]: < 4.52
